From PubChem BioAssay AID2060493 (Molecular Pharmacology Branch, DTP, NCI, 2025)

Test system: 616215-338-R-J1-PDC tumor spheroids, viability
Assay: Anticancer human tumor 616215-338-R-J1-PDC patient-derived colon adenocarcinoma cell line growth inhibition [GQUAD]
Conditions: spheroids with HUVEC and MSC; for IC50: curve of first compound; for viability, T/C: stronger effect = lower value
In short: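 Tumor cells were grown as complex spheroids with HUVEC endothelial cells and mesenchymal stem cells as stroma. G-quadruplex stabilizers were combined with targeted agents over half-log dilutions from near the clinical Cmax, or from 10 microM.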

[1] = second compound 0.0316 µM, first compound 0.0316 µM
[2] = second compound 0.0316 µM, first compound 0.1 µM
[3] = second compound 0.0316 µM, first compound 0.316 µM
[4] = second compound 0.0316 µM, first compound 1 µM
[5] = second compound 0.0316 µM, first compound 3.16 µM
[6] = second compound 0.0316 µM, first compound 10 µM
[7] = second compound 0.1 µM, first compound 0.0316 µM
[8] = second compound 0.1 µM, first compound 0.1 µM
[9] = second compound 0.1 µM, first compound 0.316 µM
[10] = second compound 0.1 µM, first compound 1 µM
[11] = second compound 0.1 µM, first compound 3.16 µM
[12] = second compound 0.1 µM, first compound 10 µM
[13] = second compound 0.316 µM, first compound 0.0316 µM
[14] = second compound 0.316 µM, first compound 0.1 µM
[15] = second compound 0.316 µM, first compound 0.316 µM
[16] = second compound 0.316 µM, first compound 1 µM
[17] = second compound 0.316 µM, first compound 3.16 µM
[18] = second compound 0.316 µM, first compound 10 µM
[19] = second compound 1 µM, first compound 0.0316 µM
[20] = second compound 1 µM, first compound 0.1 µM
[21] = second compound 1 µM, first compound 0.316 µM
[22] = second compound 1 µM, first compound 1 µM
[23] = second compound 1 µM, first compound 3.16 µM
[24] = second compound 1 µM, first compound 10 µM
[25] = second compound 3.16 µM, first compound 0.0316 µM
[26] = second compound 3.16 µM, first compound 0.1 µM
[27] = second compound 3.16 µM, first compound 0.316 µM
[28] = second compound 3.16 µM, first compound 1 µM
[29] = second compound 3.16 µM, first compound 3.16 µM
[30] = second compound 3.16 µM, first compound 10 µM
[31] = second compound 10 µM, first compound 0.0316 µM
[32] = second compound 10 µM, first compound 0.1 µM
[33] = second compound 10 µM, first compound 0.316 µM
[34] = second compound 10 µM, first compound 1 µM
[35] = second compound 10 µM, first compound 3.16 µM
[36] = second compound 10 µM, first compound 10 µM
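Further: spheroids exposed to agents for 7 days before readout.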
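Wherever viability, T/C is given: percent viability relative to DMSO vehicle control wells taken as 100%.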

CC(C)n1c(=O)n(C)c2cnc3cc(F)c(-c4ccc(OCCCN5CCCCC5)nc4)cc3c21 + Cc1[nH]c2ccc(F)cc2c1-c1nc2c3cccnc3c3ncccc3c2[nH]1
IC50 (second compound 0.0316 µM): > 10 µM
IC50 (second compound 0.1 µM): > 10 µM
IC50 (second compound 0.316 µM): > 10 µM
IC50 (second compound 1 µM): > 10 µM
IC50 (second compound 3.16 µM): > 10 µM
IC50 (second compound 10 µM): > 10 µM
viability, T/C [1]: 102%
viability, T/C [2]: 98.8%
viability, T/C [3]: 97.5%
viability, T/C [4]: 101%
viability, T/C [5]: 117%
viability, T/C [6]: 70.9%
viability, T/C [7]: 103%
viability, T/C [8]: 99.6%
viability, T/C [9]: 100%
viability, T/C [10]: 107%
viability, T/C [11]: 112%
viability, T/C [12]: 85.7%
viability, T/C [13]: 107%
viability, T/C [14]: 99.3%
viability, T/C [15]: 100%
viability, T/C [16]: 106%
viability, T/C [17]: 100%
viability, T/C [18]: 72.9%
viability, T/C [19]: 99%
viability, T/C [20]: 116%
viability, T/C [21]: 97.5%
viability, T/C [22]: 93.6%
viability, T/C [23]: 101%
viability, T/C [24]: 95.7%
viability, T/C [25]: 99%
viability, T/C [26]: 93.8%
viability, T/C [27]: 87.3%
viability, T/C [28]: 98.7%
viability, T/C [29]: 104%
viability, T/C [30]: 57.4%
viability, T/C [31]: 94.5%
viability, T/C [32]: 94.7%
viability, T/C [33]: 99.1%
viability, T/C [34]: 91.2%
viability, T/C [35]: 107%
viability, T/C [36]: 87%

CC1COCCN1c1cc(-c2ccnn2C)c2ccnc(-c3ccn[nH]3)c2n1 (configuration not stated) + Cc1[nH]c2ccc(F)cc2c1-c1nc2c3cccnc3c3ncccc3c2[nH]1
IC50 (second compound 0.0316 µM): 0.224 µM
IC50 (second compound 0.1 µM): 0.139 µM
IC50 (second compound 0.316 µM): 0.185 µM
IC50 (second compound 1 µM): 0.17 µM
IC50 (second compound 3.16 µM): 0.14 µM
IC50 (second compound 10 µM): 0.14 µM
viability, T/C [1]: 96.6%
viability, T/C [2]: 70.7%
viability, T/C [3]: 41.7%
viability, T/C [4]: 25.1%
viability, T/C [5]: 30.2%
viability, T/C [6]: 20.1%
viability, T/C [7]: 97.8%
viability, T/C [8]: 56.3%
viability, T/C [9]: 34.1%
viability, T/C [10]: 25.2%
viability, T/C [11]: 24.9%
viability, T/C [12]: 19.9%
viability, T/C [13]: 91.5%
viability, T/C [14]: 62.1%
viability, T/C [15]: 40%
viability, T/C [16]: 27.7%
viability, T/C [17]: 22.6%
viability, T/C [18]: 23.9%
viability, T/C [19]: 91.5%
viability, T/C [20]: 63%
viability, T/C [21]: 33.6%
viability, T/C [22]: 32.2%
viability, T/C [23]: 22.9%
viability, T/C [24]: 24.7%
viability, T/C [25]: 91.9%
viability, T/C [26]: 57.9%
viability, T/C [27]: 30.2%
viability, T/C [28]: 26.1%
viability, T/C [29]: 21.2%
viability, T/C [30]: 17.9%
viability, T/C [31]: 90.1%
viability, T/C [32]: 50%
viability, T/C [33]: 40.3%
viability, T/C [34]: 31.5%
viability, T/C [35]: 22.6%
viability, T/C [36]: 16.4%

CC1COCCN1c1cc(C2(O)CC3CCC(C2)O3)c2cnn(-c3ccn[nH]3)c2n1 (configuration not stated) + Cc1[nH]c2ccc(F)cc2c1-c1nc2c3cccnc3c3ncccc3c2[nH]1
IC50 (second compound 0.0316 µM): 0.236 µM
IC50 (second compound 0.1 µM): 0.226 µM
IC50 (second compound 0.316 µM): 0.234 µM
IC50 (second compound 1 µM): 0.222 µM
IC50 (second compound 3.16 µM): 0.176 µM
IC50 (second compound 10 µM): 0.12 µM
viability, T/C [1]: 95.4%
viability, T/C [2]: 78%
viability, T/C [3]: 40.1%
viability, T/C [4]: 30.6%
viability, T/C [5]: 28.8%
viability, T/C [6]: 25.9%
viability, T/C [7]: 90.2%
viability, T/C [8]: 83.9%
viability, T/C [9]: 35.6%
viability, T/C [10]: 31.1%
viability, T/C [11]: 23.8%
viability, T/C [12]: 17%
viability, T/C [13]: 91.8%
viability, T/C [14]: 61.5%
viability, T/C [15]: 42.4%
viability, T/C [16]: 40%
viability, T/C [17]: 26.1%
viability, T/C [18]: 19.9%
viability, T/C [19]: 99.5%
viability, T/C [20]: 59.7%
viability, T/C [21]: 47.4%
viability, T/C [22]: 32.7%
viability, T/C [23]: 23.2%
viability, T/C [24]: 19.3%
viability, T/C [25]: 92.4%
viability, T/C [26]: 71.8%
viability, T/C [27]: 27.2%
viability, T/C [28]: 31.7%
viability, T/C [29]: 25.7%
viability, T/C [30]: 16.4%
viability, T/C [31]: 88.4%
viability, T/C [32]: 50.8%
viability, T/C [33]: 36.1%
viability, T/C [34]: 30%
viability, T/C [35]: 20.8%
viability, T/C [36]: 20.2%

CC1COCCN1c1cc(C2(S(C)(=N)=O)CC2)nc(-c2ccnc3[nH]ccc23)n1 (configuration not stated) + Cc1[nH]c2ccc(F)cc2c1-c1nc2c3cccnc3c3ncccc3c2[nH]1
IC50 (second compound 0.0316 µM): 9.28 µM
IC50 (second compound 0.1 µM): 6.38 µM
IC50 (second compound 0.316 µM): 7.03 µM
IC50 (second compound 1 µM): 7.04 µM
IC50 (second compound 3.16 µM): 6.05 µM
IC50 (second compound 10 µM): 5.79 µM
viability, T/C [1]: 109%
viability, T/C [2]: 108%
viability, T/C [3]: 104%
viability, T/C [4]: 96.1%
viability, T/C [5]: 81.5%
viability, T/C [6]: 47.2%
viability, T/C [7]: 105%
viability, T/C [8]: 116%
viability, T/C [9]: 104%
viability, T/C [10]: 110%
viability, T/C [11]: 69.2%
viability, T/C [12]: 37.6%
viability, T/C [13]: 92.6%
viability, T/C [14]: 110%
viability, T/C [15]: 99.8%
viability, T/C [16]: 101%
viability, T/C [17]: 69.7%
viability, T/C [18]: 41.3%
viability, T/C [19]: 90.7%
viability, T/C [20]: 110%
viability, T/C [21]: 102%
viability, T/C [22]: 95.5%
viability, T/C [23]: 81.5%
viability, T/C [24]: 36.1%
viability, T/C [25]: 107%
viability, T/C [26]: 93.6%
viability, T/C [27]: 92.2%
viability, T/C [28]: 98.7%
viability, T/C [29]: 69.5%
viability, T/C [30]: 35%
viability, T/C [31]: 119%
viability, T/C [32]: 105%
viability, T/C [33]: 93.3%
viability, T/C [34]: 95.1%
viability, T/C [35]: 68.4%
viability, T/C [36]: 32.5%

COc1ccc([C@@H](O)c2cc(-c3ncnc4cc(N5CCOCC5)ccc34)c(F)cc2Cl)nn1 + Cc1[nH]c2ccc(F)cc2c1-c1nc2c3cccnc3c3ncccc3c2[nH]1
IC50 (second compound 0.0316 µM): > 10 µM
IC50 (second compound 0.1 µM): > 10 µM
IC50 (second compound 0.316 µM): > 10 µM
IC50 (second compound 1 µM): > 10 µM
IC50 (second compound 3.16 µM): > 10 µM
IC50 (second compound 10 µM): 8.73 µM
viability, T/C [1]: 106%
viability, T/C [2]: 108%
viability, T/C [3]: 101%
viability, T/C [4]: 105%
viability, T/C [5]: 106%
viability, T/C [6]: 53.6%
viability, T/C [7]: 108%
viability, T/C [8]: 104%
viability, T/C [9]: 110%
viability, T/C [10]: 104%
viability, T/C [11]: 104%
viability, T/C [12]: 58.4%
viability, T/C [13]: 104%
viability, T/C [14]: 111%
viability, T/C [15]: 111%
viability, T/C [16]: 111%
viability, T/C [17]: 111%
viability, T/C [18]: 61%
viability, T/C [19]: 101%
viability, T/C [20]: 99.2%
viability, T/C [21]: 104%
viability, T/C [22]: 96.8%
viability, T/C [23]: 90.2%
viability, T/C [24]: 72.5%
viability, T/C [25]: 96.7%
viability, T/C [26]: 99.2%
viability, T/C [27]: 90%
viability, T/C [28]: 97.8%
viability, T/C [29]: 97.4%
viability, T/C [30]: 51.2%
viability, T/C [31]: 90.3%
viability, T/C [32]: 101%
viability, T/C [33]: 97.4%
viability, T/C [34]: 117%
viability, T/C [35]: 100%
viability, T/C [36]: 43.2%

O=C(c1cc(Cc2n[nH]c(=O)c3ccccc23)ccc1F)N1CCN(C(=O)C2CC2)CC1 + Cc1[nH]c2ccc(F)cc2c1-c1nc2c3cccnc3c3ncccc3c2[nH]1
IC50 (second compound 0.0316 µM): > 10 µM
IC50 (second compound 0.1 µM): > 10 µM
IC50 (second compound 0.316 µM): > 10 µM
IC50 (second compound 1 µM): > 10 µM
IC50 (second compound 3.16 µM): > 10 µM
IC50 (second compound 10 µM): > 10 µM
viability, T/C [1]: 99.5%
viability, T/C [2]: 97%
viability, T/C [3]: 107%
viability, T/C [4]: 101%
viability, T/C [5]: 98.6%
viability, T/C [6]: 74.2%
viability, T/C [7]: 102%
viability, T/C [8]: 100%
viability, T/C [9]: 93.8%
viability, T/C [10]: 102%
viability, T/C [11]: 105%
viability, T/C [12]: 72.3%
viability, T/C [13]: 93.9%
viability, T/C [14]: 105%
viability, T/C [15]: 98.9%
viability, T/C [16]: 100%
viability, T/C [17]: 104%
viability, T/C [18]: 73.7%
viability, T/C [19]: 98.8%
viability, T/C [20]: 95.1%
viability, T/C [21]: 104%
viability, T/C [22]: 107%
viability, T/C [23]: 85.9%
viability, T/C [24]: 53.4%
viability, T/C [25]: 99.5%
viability, T/C [26]: 105%
viability, T/C [27]: 95%
viability, T/C [28]: 96.8%
viability, T/C [29]: 110%
viability, T/C [30]: 67.2%
viability, T/C [31]: 96.5%
viability, T/C [32]: 87.6%
viability, T/C [33]: 98.2%
viability, T/C [34]: 84.3%
viability, T/C [35]: 91.3%
viability, T/C [36]: 52%
